Data from patent US8080529B2, “Macrolides with anti-inflammatory activity” (Glaxo Group Limited, priority 2005, dated 2011).

Key:
neutrophils = test: Lung neutrophilia induced by bacterial lipopolysaccharide in male BALB/cJ mice: cells in BALF and lung tissue; type: in vivo; conditions: 5 mg i.p.; 24 hours after LPS
Experimental: (§1) Male BALB/cJ mice (Iffa Credo, France), with average weight 30 g were randomly grouped (n=7 in testing group, 8 in positive control, 7 in negative control). Mice were administered intraperitoneally (i.p.) a single dose of 5 or 2.5 mg of test compound. Two hours after administration, 2 μg of bacterial lipopolysaccharide (LPS), dissolved in PBS in a volume of 60 μL, was intranasally administered to all experimental groups except the negative control group, which received the same volume (60 μL) of vehicle PBS. Animals were sacrificed approximately 24 hours after application of LPS in order to obtain bronchoalveolar lavage fluid (BALF), which was used to determine concentrations of IL-6 and TNF-α, absolute number of cells, and the percentage of neutrophils in BALF. Results are expressed as percentage of decrease of total cell number, relative number of neutrophils, and TNF-α, and IL-6 concentration in BALF of treated animals compared to positive control (LPS stimulated, but untreated animals).
(§2) Results are expressed as percentage of decrease of total cell number, relative number of neutrophils, and TNF-alpha and IL-6 concentration in BALF of treated animals compared to positive control (LPS stimulated, but untreated animals).
Besides accumulation of inflammatory cells in BALF, the extent and anatomic site of pulmonary inflammation induced by LPS was assessed 24 hours after PBS or LPS exposure. Accumulation of granulocytes and mononuclear cells in peribronchial (PB) and perivascular (PV) lung tissue areas and in alveolar spaces was monitored following sacrifice of the animals.

IL-5 = test: Inhibition of IL-5 production by PHA-stimulated human PBMC in vitro; type: cell-based; conditions: 3 days
Experimental: (§3) Heparinized peripheral blood was obtained from healthy donors, and peripheral blood mononuclear cells (PBMC) were isolated by Histopaque 1077 (Sigma, USA) density centrifugation at 400×g for 30 minutes. Collected PBMC were centrifuged in plasma at 400×g for 10 min, resuspended and washed in RPMI 1640 (Institute of Immunology, Croatia) by centrifugation.
(§4) Peripheral blood mononuclear cells (PBMC), isolated as described above, were seeded in a 48-well plate at a concentration of 1×10^6 cells per well in the RPMI culture medium described above. Cells were stimulated with 10 μg/mL phytohaemagglutinin (PHA) (Sigma, USA) and incubated at 37° C., 5% CO2 in 90% humidity with tested compounds (10 and 50 μM) for 3 days. Cytokine concentrations were determined in supernatants by sandwich ELISA, using capture and detection antibodies (R&D, USA) according to the manufacturer's recommendations.
(§5) Inhibition (as percentage) was calculated using the following formula: % inhibition=(1−concentration of cytokines in sample/concentration of cytokines in positive control)×100.
(§6) The positive control refers to LPS-, PMA- or zymosan-stimulated samples that were not treated with test compounds.

IL-6 = test: Lung neutrophilia induced by bacterial lipopolysaccharide in male BALB/cJ mice: IL-6 in BALF; type: in vivo; conditions: 5 mg i.p.; 24 hours after LPS
Experimental: as §1, §2

IL-2 = test: Inhibition of IL-2 production by PHA-stimulated human PBMC in vitro; type: cell-based; conditions: 3 days
Experimental: as §3, §4, §5, §6

LPS-induced septic shock = test: Septic shock induced by bacterial lipopolysaccharide in male BALB/cJ mice; type: in vivo; conditions: 24 hours
Experimental: Male BALB/cJ mice, (Iffa Credo, Lyon, France) 8 weeks old, weighing 25 g were randomly grouped (n=10 in testing groups and 15 in control group). Animals were primed with 4 μg bacterial lipopolysaccharide (LPS) that was dissolved in saline and administered i.pl. After 18-24 hours animals were challenged by an intravenous injection of 90 μg LPS in a volume of 0.2 mL. Animals were treated with the test compounds or the vehicle (control) intraperitoneally . . . or per os 30 min prior to each injection of LPS. Survival throughout 24 hours was monitored.

granulocytes = test: Inhibition of degranulation of granulocytes (free neutrophil elastase activity); type: cell-based, human
Experimental: Granulocytes were obtained from heparinized whole blood using density gradiant centrifugation. Erythrocytes were sedimented on 3% dextran T-500 (Amersham Pharmacia Biotech AB, Uppsala, Sweden). Leukocytes were centrifuged on Ficoll (Amersham Pharmacia Biotech AB, Uppsala, Sweden) for 35 min at 600 g at 20° C. The pellet of granulocytes was cleared from remaining erythrocytes by a brief hypotonic lysis.
1×10^6 granulocytes, isolated as described above, were resuspended in RPMI-1640 medium (Institute of Immunology, Croatia), and were incubated with 10 or 50 μM of test compound together with cytochalasine B (5 μg/mL) for 2 h at 37° C. Degranulation then was induced by the addition of 0.1 μM fMLP (Sigma, USA) or 0.5 μM A23187 (Calbiochem, USA). The activity of free neutrophil elastase was determined with a chromogenic substrate specific for human neutrophil elastase, such as N-(methoxysuccinyl)-L-alanyl-L-alanyl-L-prolyl-L-valine 4-nitroanilide (Sigma Chemical Company, St Louis, Mo., USA). Elastase activity, as a marker of primary granules, was assessed in supernatant using a spectrophotometer at an absorbance of 405 nm.
Results are expressed as the percent of inhibition of degranulation in unstimulated cells, and in stimulated cells treated with fMLP or A23187.

TNF-α = test: Lung neutrophilia induced by bacterial lipopolysaccharide in male BALB/cJ mice: TNF-α in BALF; type: in vivo; conditions: 5 mg i.p.; 24 hours after LPS
Experimental: as §1, §2

CCC1OC(=O)C(C)C(OC2CC(C)(OC)C(OC(=O)CCN(CC)CC)C(C)O2)C(C)C(OC2OC(C)CC(N(C)C)C2O)C(C)(OC)CC(C)C(=O)NC(C)C(O)C1(C)O (centres unmarked) [Example 8, 4″-O-(3-Diethylamino-propionyl)-6-O-methyl-9a-aza-9a-homoerythromycin A]
% decrease of neutrophils in BALF (neutrophils): 52% | % decrease of total cell no. in BALF (neutrophils): 84% | Percentage of inhibition of IL-5 production (IL-5; 10 μM): 34% | Percentage of inhibition of IL-5 production (IL-5; 50 μM): 85% | Percentage of decrease of IL-6 concentration in BALF (IL-6): 67% | Percentage of inhibition of IL-2 production (IL-2; 10 μM): 100% | Percentage of inhibition of IL-2 production (IL-2; 50 μM): 100% | Survival (%) (LPS-induced septic shock; 10 mg/kg i.p.): 50% | Survival (%) (LPS-induced septic shock; 100 mg/kg p.o.): 100% | Percentage of inhibition of degranulation of granulocytes (granulocytes; A23187 0.5 μM, compound 10 μM): 10% | Percentage of inhibition of degranulation of granulocytes (granulocytes; A23187 0.5 μM, compound 50 μM): 24% | Percentage of inhibition of degranulation of granulocytes (granulocytes; fMLP 0.1 μM, compound 10 μM): 52% | Percentage of inhibition of degranulation of granulocytes (granulocytes; fMLP 0.1 μM, compound 50 μM): 72% | Percentage of decrease of TNF-α concentration in BALF (TNF-α): 69%
